Results published in patent publication US11427548B2 (Arvinas Operations, Inc., priority 2015, dated 2022).
Read-outs that look alike come from different tables or passages of the source.

Target: T1, Androgen Receptor (Homo sapiens, UniProt P10275)
T1 construct: endogenous in cells; host or cells: VCaP cells
T1 sequence (P10275 1-920): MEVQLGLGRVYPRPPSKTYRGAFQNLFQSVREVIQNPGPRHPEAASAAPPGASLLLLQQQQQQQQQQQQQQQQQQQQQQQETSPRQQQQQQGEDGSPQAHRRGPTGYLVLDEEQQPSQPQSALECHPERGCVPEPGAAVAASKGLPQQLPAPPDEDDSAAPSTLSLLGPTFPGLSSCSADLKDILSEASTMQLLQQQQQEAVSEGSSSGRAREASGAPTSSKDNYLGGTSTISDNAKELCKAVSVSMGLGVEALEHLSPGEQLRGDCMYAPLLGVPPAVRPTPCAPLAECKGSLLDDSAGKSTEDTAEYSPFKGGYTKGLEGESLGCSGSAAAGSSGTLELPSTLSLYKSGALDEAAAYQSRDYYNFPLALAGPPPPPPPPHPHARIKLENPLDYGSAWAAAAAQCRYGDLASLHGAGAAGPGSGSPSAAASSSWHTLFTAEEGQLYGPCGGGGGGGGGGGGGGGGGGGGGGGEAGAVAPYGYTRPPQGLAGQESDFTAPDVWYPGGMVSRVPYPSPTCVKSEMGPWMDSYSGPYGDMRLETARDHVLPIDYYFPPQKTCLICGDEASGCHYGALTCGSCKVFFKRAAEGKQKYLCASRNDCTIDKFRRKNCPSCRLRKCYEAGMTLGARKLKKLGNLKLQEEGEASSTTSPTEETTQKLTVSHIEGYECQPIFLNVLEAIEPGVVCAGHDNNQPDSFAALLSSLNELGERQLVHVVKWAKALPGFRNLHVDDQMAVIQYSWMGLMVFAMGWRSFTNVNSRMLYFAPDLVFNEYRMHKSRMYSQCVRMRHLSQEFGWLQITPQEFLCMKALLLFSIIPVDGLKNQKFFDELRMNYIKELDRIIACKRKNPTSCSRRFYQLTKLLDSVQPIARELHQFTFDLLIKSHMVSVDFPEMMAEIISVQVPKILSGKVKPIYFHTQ
Test: Androgen Receptor ELISA assay (PathScan AR ELISA) in VCaP cells: AR degradation, Dmax and DC50
Assay type: cell-based
Settings: for DC50: read-out: VCaP DC50; for Dmax: VCaP, read-out: VCaP Dmax (%)
Outline: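 VCaP cells in phenol red-free RPMI with 5% charcoal-stripped FBS were grown at least 3 days, then given compound as 7 half-log doses in 0.1% DMSO with 0.1 nM R1881 for 24 h. Lysates went into a sandwich AR ELISA with TMB read at 450 nm.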

Structure (SMILES)	DC50 (VCaP cells, Table 36) [nM]	Dmax (VCaP cells, Table 36) [%]	also measured
Cc1ncsc1-c1ccc(CNC(=O)[C@@H]2C[C@@H](O)CN2C(=O)[C@@H](NC(=O)COCCCCOc2ccc(-c3ccc(N4C(=S)N(c5cnc(C#N)c(C(F)(F)F)c5)C(=O)C45CCC5)cc3)cc2)C(C)(C)C)cc1 [Example 199, (2S,4R)-1-[(2S)-2-(2-{4-[4-(4-{7-[6-cyano-5-(trifluoromethyl)pyridin-3-yl]-8-oxo-6-sulfanylidene-5,7-diazaspiro[3.4]octan-5-yl}phenyl)phenoxy]butoxy}acetamido)-3,3-dimethylbutanoyl]-4-hydroxy-N-{[4-(4-methyl-1,3-thiazol-5-yl)phenyl]methyl}pyrrolidine-2-carboxamide]			DC50 (VCaP cells, concentration that caused 50% Androgen Receptor degradation): < 50 nM; Dmax (VCaP cells, highest percentage of Androgen Receptor degradation): 51 to 70%
Cc1ncsc1-c1ccc([C@H](C)NC(=O)[C@@H]2C[C@@H](OC(=O)OC(C)C)CN2C(=O)[C@@H](NC(=O)COCCCCCNc2ccc(C(=O)N[C@H]3C(C)(C)[C@H](Oc4ccc(C#N)c(Cl)c4)C3(C)C)cc2)C(C)(C)C)cc1 [Example 652, (3R,5S)-1-((S)-2-(2-((5-((4-(((1r,3r)-3-(3-chloro-4-cyanophenoxy)-2,2,4,4-tetramethylcyclobutyl)carbamoyl)phenyl)amino)pentyl)oxy)acetamido)-3,3-dimethylbutanoyl)-5-(((S)-1-(4-(4-methylthiazol-5-yl)phenyl)ethyl)carbam-oyl)pyrrolidin-3-yl isopropyl carbonate]	> 501	< 25	
CC(C)(C)[C@H](NC(=O)COCCCOCCCCOc1ccc(N2C(=S)N(c3cnc(C#N)c(C(F)(F)F)c3)C(=O)C2(C)C)cc1F)C(=O)N1C[C@H](O)C[C@H]1C(=O)NCc1ccc(-c2cnco2)cc1 [Example 47, (2S,4R)-1-[(2S)-2-(2-{3-[4-(4-{3-[6-cyano-5-(trifluoromethyl)pyridin-3-yl]-5,5-dimethyl-4-oxo-2-sulfanylideneimidazolidin-1-yl}-2-fluorophenoxy)butoxy]propoxy}acetamido)-3,3-dimethylbutanoyl]-4-hydroxy-N-{[4-(1,3-oxazol-5-yl)phenyl]methyl}pyrrolidine-2-carboxamide]			Dmax (highest percentage of Androgen Receptor degradation observed, VCaP cells): 51 to 70%; DC50 (concentration that caused 50% Androgen Receptor degradation, VCaP cells): < 50 nM
Cc1ncsc1-c1ccc(CNC(=O)[C@@H]2C[C@@H](O)CN2C(=O)[C@H](C(C)C)N2CC(OCCOCCOc3ccc(N4C(=S)N(c5ccc(C#N)c(C(F)(F)F)c5)C(=O)C4(C)C)cc3)=CC2=O)cc1 [Example 314]			Dmax: < 25%; DC50 (VCaP cells, Table 34): 51 to 500 nM
C[C@H](NC(=O)[C@@H]1C[C@@H](O)CN1C(=O)[C@@H](NC(=O)COCCN1CCN(c2ccc(C(=O)N[C@H]3C(C)(C)[C@H](Oc4ccc(C#N)c(Cl)c4)C3(C)C)cn2)CC1)C(C)(C)C)c1ccc(-c2scnc2CO)cc1 [Example 673, N-((1r,3r)-3-(3-chloro-4-cyanophenoxy)-2,2,4,4-tetramethylcyclobutyl)-6-(4-(2-(2-(((S)-1-((2S,4R)-4-hydroxy-2-(((S)-1-(4-(4-(hydroxymethyl)thiazol-5-yl)phenyl)ethyl)carbam-oyl)pyrrolidin-1-yl)-3,3-dimethyl-1-oxobutan-2-yl)amino)-2-oxoethoxy)ethyl)pipera-zin-1-yl)nicotinamide]	< 50	> 71	
Cc1ncsc1-c1ccc([C@H](C)NC(=O)[C@@H]2C[C@@H](O)CN2C(=O)[C@@H](NC(=O)COc2ccc(O[C@H]3CC[C@H](Oc4ccc(N5C(=S)N(c6ccc(C#N)c(C(F)(F)F)c6)C(=O)C5(C)C)cc4)CC3)nc2)C(C)(C)C)cc1 (racemic) [Example 421]			Dmax: 26 to 50%; DC50 (VCaP cells, Table 35): 51 to 500 nM
Cc1ncsc1-c1ccc([C@H](C)NC(=O)[C@@H]2C[C@@H](O)CN2C(=O)[C@@H](NC(=O)COC2CC(N3CCN(c4ccc(C(=O)NC5C(C)(C)C(Oc6ccc(C#N)c(Cl)c6)C5(C)C)cn4)CC3)C2)C(C)(C)C)cc1 (stereo partly drawn) [Example 846, N-((1r,3R)-3-(3-chloro-4-cyanophenoxy)-2,2,4,4-tetramethylcyclobutyl)-6-(4-((1S,3R)-3-(2-(((S)-1-((2S,4R)-4-hydroxy-2-(((S)-1-(4-(4-methylthiazol-5-yl)phenyl)ethyl)carbamoyl)pyrrolidin-1-yl)-3,3-dimethyl-1-oxobutan-2-yl)amino)-2-oxoethoxy)cyclobutyl)piperazin-1-yl)nicotinamide]	< 50	> 71	
Cc1ncsc1-c1ccc([C@H](C)NC(=O)[C@@H]2C[C@@H](O)CN2C(=O)[C@@H](NC(=O)COCCN2CCN(c3ccc(C(=O)N[C@H]4C(C)(C)[C@H](Oc5ccc(C#N)c(C(F)(F)F)c5)C4(C)C)nn3)CC2)C(C)(C)C)cc1 [Example 684, N-((1r,3r)-3-(4-cyano-3-(trifluoromethyl)phenoxy)-2,2,4,4-tetramethylcyclobutyl)-6-(4-(2-(2-(((S)-1-((2S,4R)-4-hydroxy-2-(((S)-1-(4-(4-methylthiazol-5-yl)phenyl)ethyl)carbam-oyl)pyrrolidin-1-yl)-3,3-dimethyl-1-oxobutan-2-yl)amino)-2-oxoethoxy)ethyl)pipera-zin-1-yl)pyridazine-3-carboxamide]	< 50	51 to 70	
Cc1ncsc1-c1ccc(CNC(=O)[C@@H]2C[C@@H](O)CN2C(=O)[C@@H](NC(=O)COCCOc2ccc(Oc3ccc(C(=O)N[C@H]4C(C)(C)[C@H](Oc5ccc(C#N)c(Cl)c5)C4(C)C)cc3)cc2)C(C)(C)C)cc1 [Example 185, (2S,4R)-1-[(2S)-3,3-dimethyl-2-(2-{2-[4-(4-{[trans-3-(3-chloro-4-cyanophenoxy)-2,2,4,4-tetramethylcyclobutyl]carbamoyl}phenoxy)phenoxy]ethoxy}acetamido)butanoyl]-4-hydroxy-N-{[4-(4-methyl-1,3-thiazol-5-yl)phenyl]methyl}pyrrolidine-2-carboxamide]			Dmax (highest percentage of Androgen Receptor degradation observed, VCaP cells (Table 32)): > 71%; DC50 (concentration that caused 50% Androgen Receptor degradation, VCaP cells (Table 32)): < 50 nM

Further lines, with some results ahead:

DC50 (VCaP cells, Table 36) [nM]	Dmax (VCaP cells, Table 36) [%]	Structure (SMILES)	also measured
< 50	> 71	Cc1ncsc1-c1ccc(C(CO)NC(=O)[C@@H]2CC(O)CN2C(=O)[C@@H](NC(=O)CN2CCN(CCN3CCN(c4ccc(C(=O)NC5C(C)(C)C(Oc6ccc(C#N)c(Cl)c6)C5(C)C)cn4)CC3)CC2)C(C)(C)C)cc1 (stereo partly drawn) [Example 834, N-((1r,3r)-3-(3-chloro-4-cyanophenoxy)-2,2,4,4-tetramethylcyclobutyl)-6-(4-(2-(4-(2-(((S)-1-((2S,4R)-4-hydroxy-2-(((R)-2-hydroxy-1-(4-(4-methylthiazol-5-yl)phenyl)ethyl)carbamoyl)pyrrolidin-1-yl)-3,3-dimethyl-1-oxobutan-2-yl)amino)-2-oxoethyl)piperazin-1-yl)ethyl)piperazin-1-yl)nicotinamide]	
51 to 500	26 to 50	Cc1ncsc1-c1ccc([C@H](C)NC(=O)[C@@H]2C[C@@H](O)CN2C(=O)[C@@H](NC(=O)CCCCC(CCCc2ccc(C(=O)N[C@H]3C(C)(C)[C@H](Oc4ccc(C#N)c(Cl)c4)C3(C)C)nc2)N2CCN(C)CC2)C(C)(C)C)cc1 (stereo partly drawn) [Example 687, N-((1R,3R)-3-(3-chloro-4-cyanophenoxy)-2,2,4,4-tetramethylcyclobutyl)-5-(9-(((S)-1-((2S,4R)-4-hydroxy-2-(((S)-1-(4-(4-methylthiazol-5-yl)phenyl)ethyl)carbam-oyl)pyrrolidin-1-yl)-3,3-dimethyl-1-oxobutan-2-yl)amino)-4-(4-methylpiperazin-1-yl)-9-oxononyl)picolinamide]	
> 501	< 25	CC(C)[C@@H](C(=O)N1C[C@H](O)C[C@H]1C(=O)NCc1ccc(Cl)cc1N1CCN(CCCc2ccc(C(=O)N[C@H]3C(C)(C)[C@H](Oc4ccc(C#N)c(Cl)c4)C3(C)C)cc2)CC1)N1Cc2ccccc2C1=O [Example 754, (2S,4R)-N-(4-chloro-2-(4-(3-(4-(((1r,3r)-3-(3-chloro-4-cyanophenoxy)-2,2,4,4-tetramethylcyclobutyl)carbamoyl)phenyl)propyl)piperazin-1-yl)benzyl)-4-hydroxy-1-((S)-3-methyl-2-(1-oxoisoindolin-2-yl)butanoyl)pyrrolidine-2-carboxamide]	
